In publication PMC8617031, “Development of a BCL-xL and BCL-2 dual degrader with improved anti-leukemic activity,” (Nature Communications, 2021):
Where “and” joins values, the source holds several entries; their conditions need not be identical. Equal values may be shown once.

How the values were obtained:
[1] = target: T1, BCL-2/PROTAC/VCB ternary complex (Homo sapiens, UniProt P10415+P40337); assay: AlphaLISA ternary complex formation, cell-free, BCL-2; assay type: binding; details: for in vitro ternary complex formation with BCL-2 (in words): AlphaLISA, cell-free, Fig. 2d, 3f; for AlphaLISA signal, BCL-2/PROTAC/VCB: Fig. 2d raw Alpha reads
T1 construct: pGEX-6P-1-VHL(54-213) (pDL2200) was constructed through Gibson assembly method; made in house; host or cells: bacterial culture (LB broth, IPTG induction)
Method in brief: (§1)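 Cell-free AlphaLISA: 5 nM His-tagged BCL-xL or BCL-2 plus 5 nM GST-VCB incubated with fourfold serially diluted compound 30 min at room temperature. Glutathione donor and His acceptor beads (20 µg/ml each) then added for 15 and 45 min; AlphaLISA signal plotted against compound concentration.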

BCL-xL = target: T2, BCL-xL (Homo sapiens, UniProt Q07817); assay: BCL-xL degradation by immunoblot in 293T cells; assay type: cell-based; details: for DC50: 293T cells, four concentrations, 16 h, Fig. 2b, read-out: BCL-xL DC50; for Dmax: HEK-293T
T2 construct: endogenous in cells
Method in brief: (§2)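 DC50 and Dmax come from densitometry of western blots of treated 293T cells, normalized to β-actin, mean of 3 independent experiments. Lysates in RIPA, 20–40 μg loaded per lane, HRP chemiluminescence read-out.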

[2] = target: T3, BCL-xL/PROTAC/VHL-ELOC-ELOB (VCB) ternary complex (Homo sapiens, UniProt P40337+Q07817); assay: AlphaLISA ternary complex formation, cell-free, BCL-xL; assay type: binding; details: for in vitro ternary complex formation with BCL-xL (in words): AlphaLISA, cell-free, Fig. 2c, 3e; for AlphaLISA signal, BCL-xL/PROTAC/VCB: Fig. 2c raw Alpha reads
T3 construct: pGEX-6P-1-VHL(54-213) (pDL2200) was constructed through Gibson assembly method; made in house; host or cells: bacterial culture (LB broth, IPTG induction)
Method in brief: as §1

BCL-2 = target: T4, BCL-2 (Homo sapiens, UniProt P10415); assay: BCL-2 degradation by immunoblot in 293T cells; assay type: cell-based; details: for Dmax: HEK-293T
T4 construct: endogenous in cells
Method in brief: as §2

[3] = compound 200000 nM, 2 technical replicates

T3 sequence (Q07817 1-212 limits assumed): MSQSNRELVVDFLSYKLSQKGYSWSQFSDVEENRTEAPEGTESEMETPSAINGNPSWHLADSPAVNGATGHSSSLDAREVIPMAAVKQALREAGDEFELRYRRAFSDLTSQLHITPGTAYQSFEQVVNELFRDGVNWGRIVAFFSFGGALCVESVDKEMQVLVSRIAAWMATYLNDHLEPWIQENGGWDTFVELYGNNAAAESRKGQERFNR
T3 sequence (P40337 54-213 limits assumed): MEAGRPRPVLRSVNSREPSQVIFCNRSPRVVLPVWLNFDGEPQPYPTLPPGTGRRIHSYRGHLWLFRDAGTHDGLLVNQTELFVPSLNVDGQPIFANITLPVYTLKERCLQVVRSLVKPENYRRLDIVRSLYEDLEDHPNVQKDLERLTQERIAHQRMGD
T3 sequence (Q15369 17-112 partner limits assumed): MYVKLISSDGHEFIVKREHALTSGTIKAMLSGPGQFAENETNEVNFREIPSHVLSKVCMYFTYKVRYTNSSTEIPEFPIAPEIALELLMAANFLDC
T3 sequence (Q15370 whole entry partner): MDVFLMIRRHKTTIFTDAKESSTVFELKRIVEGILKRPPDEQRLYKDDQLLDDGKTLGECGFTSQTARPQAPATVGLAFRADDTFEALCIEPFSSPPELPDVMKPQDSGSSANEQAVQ
T4 sequence (P10415 whole entry): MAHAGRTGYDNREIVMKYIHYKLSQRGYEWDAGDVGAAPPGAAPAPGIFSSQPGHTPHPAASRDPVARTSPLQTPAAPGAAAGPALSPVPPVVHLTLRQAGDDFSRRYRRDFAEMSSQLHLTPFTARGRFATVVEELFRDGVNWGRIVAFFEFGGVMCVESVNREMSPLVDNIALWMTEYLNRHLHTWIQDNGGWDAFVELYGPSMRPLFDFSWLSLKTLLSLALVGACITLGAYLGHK
T1 sequence (P10415 1-211 limits assumed): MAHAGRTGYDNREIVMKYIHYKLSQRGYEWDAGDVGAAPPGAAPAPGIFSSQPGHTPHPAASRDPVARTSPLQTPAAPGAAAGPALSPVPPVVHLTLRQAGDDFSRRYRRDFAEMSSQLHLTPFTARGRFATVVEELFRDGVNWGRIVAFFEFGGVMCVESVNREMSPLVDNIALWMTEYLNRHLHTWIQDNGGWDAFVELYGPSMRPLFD
T1 sequence (P40337 54-213 limits assumed): as the sequence (P40337 54-213 limits assumed) above
T1 sequence (Q15369 17-112 partner limits assumed): as the sequence (Q15369 17-112 partner limits assumed) above
T1 sequence (Q15370 whole entry partner): as the sequence (Q15370 whole entry partner) above
T2 sequence (Q07817 whole entry): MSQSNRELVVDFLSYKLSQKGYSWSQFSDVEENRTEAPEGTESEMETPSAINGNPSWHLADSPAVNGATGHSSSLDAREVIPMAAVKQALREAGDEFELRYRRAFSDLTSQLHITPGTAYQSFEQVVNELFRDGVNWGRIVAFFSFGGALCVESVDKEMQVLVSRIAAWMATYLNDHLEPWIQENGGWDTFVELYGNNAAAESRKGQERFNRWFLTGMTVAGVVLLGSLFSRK

Structure (SMILES) | in vitro ternary complex formation with BCL-2 (in words) [1] | AlphaLISA signal, BCL-2/PROTAC/VCB ([1]; compound 0.763 nM) | AlphaLISA signal, BCL-2/PROTAC/VCB ([1]; compound 3.052 nM) | AlphaLISA signal, BCL-2/PROTAC/VCB ([1]; compound 12.207 nM) | AlphaLISA signal, BCL-2/PROTAC/VCB ([1]; compound 48.828 nM) | AlphaLISA signal, BCL-2/PROTAC/VCB ([1]; compound 195.31 nM) | AlphaLISA signal, BCL-2/PROTAC/VCB ([1]; compound 781.25 nM) | AlphaLISA signal, BCL-2/PROTAC/VCB ([1]; compound 3125 nM) | AlphaLISA signal, BCL-2/PROTAC/VCB ([1]; compound 12500 nM) | AlphaLISA signal, BCL-2/PROTAC/VCB ([1]; compound 50000 nM) | AlphaLISA signal, BCL-2/PROTAC/VCB [1, 3] | DC50 (BCL-xL) [µM] | Dmax (BCL-xL) [%] | in vitro ternary complex formation with BCL-xL (in words) [2] | AlphaLISA signal, BCL-xL/PROTAC/VCB ([2]; compound 0.191 nM) | AlphaLISA signal, BCL-xL/PROTAC/VCB ([2]; compound 0.763 nM) | AlphaLISA signal, BCL-xL/PROTAC/VCB ([2]; compound 3.052 nM) | AlphaLISA signal, BCL-xL/PROTAC/VCB ([2]; compound 12.207 nM) | AlphaLISA signal, BCL-xL/PROTAC/VCB ([2]; compound 48.828 nM) | AlphaLISA signal, BCL-xL/PROTAC/VCB ([2]; compound 195.31 nM) | other results
Cc1ncsc1-c1ccc([C@H](C)NC(=O)[C@@H]2C[C@@H](O)CN2C(=O)[C@@H](NC(=O)CCCCC(=O)N2CCN(CC3(C)CCC(c4ccc(Cl)cc4)=C(CN4CCN(c5ccc(C(=O)NS(=O)(=O)c6ccc(N[C@H](CCN7CCOCC7)CSc7ccccc7)c(S(=O)(=O)C(F)(F)F)c6)cc5)CC4)C3)CC2)C(C)(C)C)cc1 (stereo partly shown) [PPC6] | stronger ternary complexes | 18031 and 17435 | 30431 and 31755 | 272991 and 264284 | 1222232 and 1254048 | 1139558 and 1151559 | 1076543 and 1153682 | 286448 and 313784 | 33420 and 31990 | 13658 and 13269 | 8289 and 7903 | 0.0399 | 91 | stronger ternary complexes | 15802 and 16724 | 18968 and 16877 | 31177 and 28685 | 217997 and 245739 | 796343 and 866530 | 952961 and 938632 | AlphaLISA signal, BCL-2/PROTAC/VCB ([1]; compound 0.191 nM): 16425 and 15906; AlphaLISA signal, BCL-xL/PROTAC/VCB ([2]; compound 781.25 nM): 936762 and 1084189; AlphaLISA signal, BCL-xL/PROTAC/VCB ([2]; compound 3125 nM): 603765 and 595968; AlphaLISA signal, BCL-xL/PROTAC/VCB ([2]; compound 12500 nM): 155340 and 139952; AlphaLISA signal, BCL-xL/PROTAC/VCB ([2]; compound 50000 nM): 73929 and 84434; AlphaLISA signal, BCL-xL/PROTAC/VCB [2, 3]: 25477 and 29119; Dmax (BCL-2): 47%
Cc1ncsc1-c1ccc([C@H](C)NC(=O)[C@@H]2C[C@@H](O)CN2C(=O)[C@@H](NC(=O)CCCCCC(=O)N2CCN(CC3(C)CCC(c4ccc(Cl)cc4)=C(CN4CCN(c5ccc(C(=O)NS(=O)(=O)c6ccc(N[C@H](CCN7CCOCC7)CSc7ccccc7)c(S(=O)(=O)C(F)(F)F)c6)cc5)CC4)C3)CC2)C(C)(C)C)cc1 (stereo partly shown) [PPC7] | stronger ternary complexes | 20141 and 15109 | 29796 and 29041 | 146984 and 135341 | 1032585 and 1008497 | 1592216 and 1719187 | 1513830 and 1470142 | 403994 and 403317 | 43692 and 35758 | 12115 and 13570 | 14257 and 11084 | 0.0128 | 85 | stronger ternary complexes | 16342 and 14008 | 13825 and 16199 | 18964 and 20836 | 75292 and 75299 | 594562 and 681817 | 1206651 and 1333081 | AlphaLISA signal, BCL-xL/PROTAC/VCB ([2]; compound 781.25 nM): 1103207 and 1035637; AlphaLISA signal, BCL-xL/PROTAC/VCB ([2]; compound 3125 nM): 530944 and 584971; AlphaLISA signal, BCL-xL/PROTAC/VCB ([2]; compound 12500 nM): 158302 and 141290; AlphaLISA signal, BCL-xL/PROTAC/VCB ([2]; compound 50000 nM): 39339 and 47417; AlphaLISA signal, BCL-xL/PROTAC/VCB [2, 3]: 23853 and 20524; BCL-2 degradation (in words) (BCL-2; 293T cells, 16 h): also degraded BCL-2; DC50 (BCL-2; 293T cells, four concentrations, 16 h, Fig. 2b, read-out: BCL-2 DC50): 0.18 µM; Dmax (BCL-2): 79%
